≈ marks a conversion by molar mass, not a printed value. Where two headings read alike, the source gives them in different places. Positions of bridges follow the written chain, without caps; N, C: chain ends. Non-standard residues stand in square brackets, D forms with d. Residues, ends and D or L forms follow the SMILES beside them. R8 = C=CCCCCCC[C@@](C)(N)C(=O)O; Cba = N[C@@H](CC1CCC1)C(=O)O; S5 = C=CCCC[C@](C)(N)C(=O)O; Ahx = NCCCCCC(=O)O
Experiments:
[1] = tested on: p53 responsive β-lactamase reporter in HCT116 cells; test: cells; assay type: cell-based; conditions: for EC50: read-out: p53 reporter assay EC50
Procedure, shortened: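 HCT116 cells stably carrying a p53-responsive β-lactamase reporter, seeded at 8000 cells/well, with 0.5% DMSO final. Reporter activity read by ToxBLAzer Dual Screen. Values are geometric means of at least three biological replicates.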

HCT116 cells = test: Lactate dehydrogenase (LDH) release assay; assay type: cell-based
Procedure, shortened: (§1)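 Geometric means of at least three independent biological runs are given for LDH release measured in HCT116 cells stably expressing a p53-driven β-lactamase reporter. Plating density was 8000 cells/well; DMSO in wells was 0.5%.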

[2] = tested on: Jump-In T-REx CHO-K1 BLA cells; test: cells; assay type: cell-based; conditions: for EC50: read-out: TETCHO: Counterscreen EC50
Description: This assay was based on Jump-In™ T-REx™ CHO-K1 BLA cells containing a stably integrated β-lactamase under the control of an inducible cytomegalovirus (CMV) promoter. Cells were maintained in Dulbecco’s […] Eagle Medium (DMEM) with 10% fetal bovine serum (FBS), Blasticidin, and Penicillin/Streptomycin and then transferred to 1.5 ml freezing vials and stored under liquid nitrogen in growth media containing 5% DMSO. […] Cells were seeded into a 384-well plate at a density of 4000 cells per well. Peptides were then dispensed to each well using a liquid handler, ECHO 555 and incubated for 16 h. The final working concentration of DMSO was 0.5%. β-lactamase activity was detected using the ToxBLAzer Dual Screen (Invitrogen), as per the manufacturer’s instructions. Measurements were carried out using the Envision multiplate reader (Perkin–Elmer). Counterscreen activity was defined as the amount of β-lactamase activity induced by tetracycline. Measurements were taken a minimum of three times (biological replicates) and values are reported as geometric means of the replicates.

[3] = Solubility assay (kinetic solubility, PBS pH 7); assay type: physicochemical; conditions: pH 7, aqueous buffer, kinetic from dmso stock
Procedure, shortened: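 Std: 10 mM stock → 100 µM in ACN/MeOH/DMSO (10:80:10). Sol. [µM] = (sample peak area / std peak area) × std conc.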

[4] = Experimental LogD (partition coefficient)
[5] = Lactate dehydrogenase (LDH) release assay; assay type: cell-based; conditions: LDH: Cytotoxicity assay EC50
Procedure, shortened: as §1

[6] = pH 7, PBS, read-out: Solubility
[7] = not stated, Partition Coeff LogD

SMILES | EC50 [5] [µM] | solubility kinetic [3, 6] [µM] | EPSA (physchem) [A^2] | logD [4, 7] | other results
CC(C)[C@@H](CS(=O)(=O)C(C)C)N1C(=O)[C@@](C)(CC(=O)O)C[C@H](c2cccc(Cl)c2)[C@H]1c1ccc(Cl)cc1 [AMG232] | – | – | – | – | p53 reporter assay % Effect ([1]; 0% FBS 4Hr): 95.1%; p53 reporter assay % Effect ([1]; 10% FBS 4Hr): 82.7%; p53 reporter assay % Effect ([1]; 10% FBS 16Hr): 83.6%; EC50 ([1]; Homo sapiens, HCT-116, 4 h, 0% FBS 4Hr): 0.0116 µM; EC50 ([1]; Homo sapiens, HCT-116, 4 h, 10% FBS 4Hr): 0.0742 µM; EC50 ([1]; Homo sapiens, HCT-116, 16 h, 10% FBS 16Hr): 0.255 µM; LDH: Cytotoxicity assay % Effect (HCT116 cells; 0% FBS 4Hr): -4.2%; LDH: Cytotoxicity assay % Effect (HCT116 cells; 10% FBS 4Hr): -12.8%; LDH: Cytotoxicity assay % Effect (HCT116 cells; 10% FBS 16Hr): -18.8%; TETCHO: Counterscreen % Effect ([2]; 0% FBS 4Hr): 72.2%; TETCHO: Counterscreen % Effect ([2]; 10% FBS 4Hr): 30.6%; TETCHO: Counterscreen % Effect ([2]; 10% FBS 16Hr): -10.3%; EC50 ([2]; T-REx-CHO-K1, 4 h, 0% FBS 4Hr): 45.6 µM; EC50 ([2]; T-REx-CHO-K1, 4 h, 10% FBS 4Hr): > 50.4 µM; EC50 ([2]; T-REx-CHO-K1, 16 h, 10% FBS 16Hr): > 50.4 µM; solubility kinetic [3]: 138 µM (≈ 78.5 µg/mL); logD [4]: 2.25
CC(=O)N[C@@H](CCCNC(=N)N)C(=O)N[C@H](C(=O)N[C@@H](Cc1ccccc1)C(=O)N[C@]1(C)CCCCCCC=CCCC[C@@](C)(C(=O)N[C@@H](CO)C(=O)N[C@@H](C)C(=O)N[C@@H](C)C(N)=O)NC(=O)[C@H](CC2CCC2)NC(=O)[C@H](CC(C)C)NC(=O)[C@H](CCC(N)=O)NC(=O)[C@H](Cc2c[nH]c3ccccc23)NC(=O)[C@H](Cc2ccc(O)cc2)NC(=O)[C@H](CCC(=O)O)NC1=O)[C@@H](C)O [MP-191] (Ac-RTF[R8]EYWQL[Cba][S5]SAA-NH2; staple 4-11) | > 50 | 3 (≈ 5.49 µg/mL) | 222 | 2.72 | –
CC(=O)N[C@@H](CC(C)C)C(=O)N[C@H](C(=O)N[C@@H](Cc1ccccc1)C(=O)N[C@]1(C)CCCCCCC=CCCC[C@@](C)(C(=O)N[C@@H](CO)C(=O)N[C@@H](C)C(=O)N[C@@H](C)C(N)=O)NC(=O)[C@H](CC2CCC2)NC(=O)[C@H](CCCNC(=N)N)NC(=O)[C@H](CCC(N)=O)NC(=O)[C@H](Cc2c[nH]c3ccccc23)NC(=O)[C@H](Cc2ccc(O)cc2)NC(=O)[C@H](CCC(=O)O)NC1=O)[C@@H](C)O [MP-195] (Ac-LTF[R8]EYWQR[Cba][S5]SAA-NH2; staple 4-11) | > 50 | 3 (≈ 5.49 µg/mL) | 216 | 2.87 | –
CC(=O)N[C@@H](CC(C)C)C(=O)N[C@H](C(=O)N[C@@H](Cc1ccccc1)C(=O)N[C@]1(C)CCCCCCC=CCCC[C@@](C)(C(=O)N[C@@H](CCCNC(=N)N)C(=O)N[C@@H](C)C(=O)N[C@@H](C)C(N)=O)NC(=O)[C@H](CC2CCC2)NC(=O)[C@H](CC(C)C)NC(=O)[C@H](CCC(N)=O)NC(=O)[C@H](Cc2c[nH]c3ccccc23)NC(=O)[C@H](Cc2ccc(O)cc2)NC(=O)[C@H](CCC(=O)O)NC1=O)[C@@H](C)O [MP-196] (Ac-LTF[R8]EYWQL[Cba][S5]RAA-NH2; staple 4-11) | > 50 | 3 (≈ 5.57 µg/mL) | 214 | 2.77 | –
CC(=O)N[C@@H](Cc1c[nH]cn1)C(=O)N[C@H](C(=O)N[C@@H](Cc1ccccc1)C(=O)N[C@]1(C)CCCCCCC=CCCC[C@@](C)(C(=O)N[C@@H](CO)C(=O)N[C@@H](C)C(=O)N[C@@H](C)C(N)=O)NC(=O)[C@H](CC2CCC2)NC(=O)[C@H](CC(C)C)NC(=O)[C@H](CCC(N)=O)NC(=O)[C@H](Cc2c[nH]c3ccccc23)NC(=O)[C@H](Cc2ccc(O)cc2)NC(=O)[C@H](CCC(=O)O)NC1=O)[C@@H](C)O [MP-197, ATSP-7041 (L1H)] (Ac-HTF[R8]EYWQL[Cba][S5]SAA-NH2; staple 4-11) | > 50 | 17 (≈ 30.8 µg/mL) | 222 | 2.56 | –
CC(=O)N[C@@H](CC(C)C)C(=O)N[C@H](C(=O)N[C@@H](Cc1ccccc1)C(=O)N[C@]1(C)CCCCCCC=CCCC[C@@](C)(C(=O)N[C@@H](CO)C(=O)N[C@@H](C)C(=O)N[C@@H](C)C(N)=O)NC(=O)[C@H](CC2CCC2)NC(=O)[C@H](Cc2c[nH]cn2)NC(=O)[C@H](CCC(N)=O)NC(=O)[C@H](Cc2c[nH]c3ccccc23)NC(=O)[C@H](Cc2ccc(O)cc2)NC(=O)[C@H](CCC(=O)O)NC1=O)[C@@H](C)O [MP-200, ATSP-7041 (L9H)] (Ac-LTF[R8]EYWQH[Cba][S5]SAA-NH2; staple 4-11) | > 50 | 94.5 (≈ 171 µg/mL) | 219 | 2.69 | –
CC(=O)N[C@@H](Cc1ccccc1)C(=O)N[C@]1(C)CCCCCCC=CCCC[C@@](C)(C(=O)N[C@@H](CO)C(N)=O)NC(=O)[C@H](CC2CCC2)NC(=O)[C@H](CC(C)C)NC(=O)[C@H](CCC(N)=O)NC(=O)[C@H](Cc2c[nH]c3ccccc23)NC(=O)[C@H](Cc2ccc(O)cc2)NC(=O)[C@H](CCC(=O)O)NC1=O [MP-203] (Ac-F[R8]EYWQL[Cba][S5]S-NH2; staple 2-9) | > 50 | 96 (≈ 137 µg/mL) | 213 | 2.61 | –
CC(=O)N[C@@H](CC(C)C)C(=O)N[C@H](C(=O)N[C@@H](Cc1ccccc1)C(=O)N[C@]1(C)CCCCCCC=CCCC[C@@](C)(C(=O)N[C@@H](CO)C(N)=O)NC(=O)[C@H](CC2CCC2)NC(=O)[C@H](CC(C)C)NC(=O)[C@H](CCC(N)=O)NC(=O)[C@H](Cc2c[nH]c3ccccc23)NC(=O)[C@H](Cc2ccc(O)cc2)NC(=O)[C@H](CCC(=O)O)NC1=O)[C@@H](C)O [MP-204] (Ac-LTF[R8]EYWQL[Cba][S5]S-NH2; staple 4-11) | > 50 | 15 (≈ 24.7 µg/mL) | 216 | 2.81 | –
CC(=O)N[C@@H](CC(C)C)C(=O)N[C@@H](CCCNC(=N)N)C(=O)N[C@@H](Cc1ccccc1)C(=O)N[C@]1(C)CCCCCCC=CCCC[C@@](C)(C(=O)N[C@@H](CO)C(=O)N[C@@H](C)C(=O)N[C@@H](C)C(N)=O)NC(=O)[C@H](CC2CCC2)NC(=O)[C@H](CC(C)C)NC(=O)[C@H](CCC(N)=O)NC(=O)[C@H](Cc2c[nH]c3ccccc23)NC(=O)[C@H](Cc2ccc(O)cc2)NC(=O)[C@H](CCC(=O)O)NC1=O [MP-1192] (Ac-LRF[R8]EYWQL[Cba][S5]SAA-NH2; staple 4-11) | > 50 | 3 (≈ 5.53 µg/mL) | 220 | 2.79 | –
CC(=O)N[C@@H](Cc1ccccc1)C(=O)N[C@]1(C)CCCCCCC=CCCC[C@@](C)(C(=O)N[C@@H](CO)C(=O)N[C@@H](C)C(=O)N[C@@H](C)C(N)=O)NC(=O)[C@H](CC2CCC2)NC(=O)[C@H](CC(C)C)NC(=O)[C@H](CCC(N)=O)NC(=O)[C@H](Cc2c[nH]c3ccccc23)NC(=O)[C@H](Cc2ccc(O)cc2)NC(=O)[C@H](CCC(=O)O)NC1=O [MP-1202] (Ac-F[R8]EYWQL[Cba][S5]SAA-NH2; staple 2-9) | > 50 | 15 (≈ 23.6 µg/mL) | 214 | 2.59 | –
CC(=O)N[C@@H](CCCNC(=N)N)C(=O)N[C@@H](CCCNC(=N)N)C(=O)N[C@@H](CCCNC(=N)N)C(=O)NCCCCCC(=O)N[C@H](C(=O)N[C@@H](CO)C(=O)N[C@@H](Cc1ccccc1)C(=O)N[C@]1(C)CCCCCCC=CCCC[C@@](C)(C(=O)N[C@@H](CCC(=O)O)C(=O)N[C@@H](CC(N)=O)C(=O)N[C@@H](Cc2ccccc2)C(N)=O)NC(=O)[C@H](CC(C)C)NC(=O)[C@H](CC(C)C)NC(=O)[C@H](C)NC(=O)[C@H](Cc2c[nH]c3ccccc23)NC(=O)[C@H](Cc2ccc(O)cc2)NC(=O)[C@H](CCC(=O)O)NC1=O)[C@@H](C)O [MP-2009] (Ac-RRR[Ahx]TSF[R8]EYWALL[S5]ENF-NH2; staple 8-15) | > 50 | – | – | – | EC50 ([1]; 0% FBS 4Hr): 9.74 µM; LDH: Cytotoxicity assay % Effect (HCT116 cells): 32.46%; TETCHO: Counterscreen % Effect ([2]; 0% FBS 4Hr): 68.36%; EC50 ([2]; 0% FBS 4Hr): 16.6 µM

From publication PMC10786919, “Design-rules for stapled peptides with in vivo activity and their application to Mdm2/X antagonists” (Nature Communications, 2024)
